Experiments:
Assay type in all cases: in vivo
Spodoptera frugiperda [1] = experiment: Spodoptera frugiperda test on maize; drench application (Example B-1); details: soil, 336 h, mortality 14 days after treatment, read-out: % Activity (according to Abbott)
Protocol: Spodoptera fugiperda Test on Maize; […] Application • Solvent: 7 parts by weight of dimethylformamide • Emulsifier: 1 part by weight of alkylaryl polyglycol ether To produce a suitable preparation of active compound, 1 part by weight of active compound is mixed with the stated amounts of solvent and emulsifier, and the concentrate is diluted with water to the desired concentration. Maize plants (Zea mays) are watered with a solution of the product in question and infested with the armyworm (Spadoptera frugiperda). After 14 days, the activity in % is determined. 100% means that all caterpillars have been killed; 0% means that none of the caterpillars have been killed.

Diabrotica balteata = Diabrotica balteata test on maize; drench application; details: soil, 192 h, mortality 8 days after treatment, mixtures about 95%/5%, read-out: % Activity (according to Abbott)
Protocol: Diabrotica balteata Test on Maize; Drench Application • Solvent: 7 parts by weight of dimethylformamide • Emulsifier: 1 part by weight of alkylaryl polyglycol ether To produce a suitable preparation of active compound, 1 part by weight of active compound is mixed with the stated amounts of solvent and emulsifier, and the concentrate is diluted with water to the desired concentration. Maize plants (Zea mays) are watered with the solution of the product in question and infested with larvae of the banded cucumber beetle (Diabrotica baltenta). After 8 days, the activity in % is determined. 100% means that all caterpillars have been killed; 0% means that none of the caterpillars have been killed.

Spodoptera frugiperda [2] = experiment: Spodoptera frugiperda test on maize; drench application (Example B); details: soil, 168 h, mortality 7 days after infestation, read-out: % Activity (according to Abbott); for pest or weed control at 0.5 mg/plant: 0.5 mg of ai/plant; for pest or weed control at 1 mg/plant: 1 mg of ai/plant
Protocol: Spodoptera frugiperda Test on Maize; Drench Application
(§1) • Solvent: 4 parts by weight of acetone • Emulsifier: 1 part by weight of alkylaryl polyglycol ether
To produce a suitable preparation of active compound, 1 part by weight of active compound is mixed with the stated amounts of solvent and emulsifier, and the concentrate is diluted with water to the desired concentration. Maize plants (Zea mays) are watered with a solution of the product in question (volume of water: 50 ml/plant). The stated concentration refers to the amount of active compound per plant. After about 1 week, the treated plants are infested with the armyworm (Spodoptera frugiperda). After 1 week, the activity in % is determined. 100% means that all caterpillars have been killed; 0% means that none of the caterpillars have been killed.

Plutella xylostella = Plutella xylostella test on Savoy cabbage; drench application; details: soil, 168 h, mortality 7 days after infestation, read-out: % Activity (according to Abbott); for pest or weed control at 0.5 mg/plant: 0.5 mg of ai/plant; for pest or weed control at 1 mg/plant: 1 mg of ai/plant
Protocol: Plutella xylostella test on Savoy Cabbage; Drench Application
as §1
To produce a suitable preparation of active compound, 1 part by weight of active compound is mixed with the stated amounts of solvent and emulsifier, and the concentrate is diluted with water to the desired concentration. Savoy cabbage (Brassica oleracea) is watered with a solution of the product in question (volume of water: 60 ml/plant). The stated concentration refers to the amount of active compound per plant. After about 1 week, the treated plants are infested with larvae of the diamondback moth (Plutella xylostella). After 1 week, the activity in % is determined. 100% means that all caterpillars have been killed; 0% means that none of the caterpillars have been killed.

Heliothis armigera = Heliothis armigera test on cotton; drench application; details: Helicoverpa armigera, soil, 168 h, mortality 7 days after infestation, read-out: % Activity (according to Abbott); for pest or weed control at 0.5 mg/plant: 0.5 mg of ai/plant; for pest or weed control at 1 mg/plant: 1 mg of ai/plant
Protocol: Heliothis armigera Test on Cotton; Drench Application
as §1
To produce a suitable preparation of active compound, 1 part by weight of active compound is mixed with the stated amounts of solvent and emulsifier, and the concentrate is diluted with water to the desired concentration. Cotton plants (Gossypium hirsuium) are watered with a solution of the product in question (volume of water: 50 ml/plant). The stated concentration refers to the amount of active compound per plant. After about 1 week, the treated plants are infested with larvae of the cotton bollworm (Heliothis armigera). After 1 week, the activity in % is determined. 100% means that all caterpillars have been killed; 0% means that none of the caterpillars have been killed.

Myzus persicae = Myzus persicae test on Savoy cabbage; drench application; details: soil, 240 h, mortality 10 days after treatment, mixtures about 85%/15% and 84%/15%, read-out: % Activity (according to Abbott)
Protocol: Myzus persicae Test on Savoy Cabbage; Drench Application • Solvent: 7 parts by weight of dimethylformamide • Emulsifier: part by weight of alkylaryl polyglycol ether To produce a suitable preparation of active compound, 1 part by weight of active compound is mixed with the stated amounts of solvent and emulsifier, and the concentrate is diluted with water to the desired concentration. Savoy cabbage (Brassica oleracea) heavily infested by the green peach aphid (Myzus persicae) is watered with a solution of the product of the desired concentration. After 10 days, the activity in % is determined. 100% means that all of the aphids have been killed: 0% means that none of the aphids have been killed.

In the case of `CNC(=O)c1cc(C#N)cc(C)c1NC(=O)c1cc(Cn2nnc(C(F)(F)F)n2)nn1-c1ncccc1Cl` [(I-1-1)], the inhibition at 20 ppm (Spodoptera frugiperda [1]) is reported as 100% and the inhibition at 20 ppm (Diabrotica balteata) is reported as 100%.

Molecule `Cc1cc(C#N)cc(C(=O)NC(C)(C)C)c1NC(=O)c1cc(Cn2nnc(C(F)(F)F)n2)nn1-c1ncccc1Cl` [(I-1-2)] has an inhibition at 20 ppm (Spodoptera frugiperda [1]) of 100%.

Molecule `CCNC(=O)c1cc(C#N)cc(C)c1NC(=O)c1cc(Cn2nnc(C(F)(F)F)n2)nn1-c1ncccc1Cl` [(I-1-3)] has a pest or weed control at 0.5 mg/plant (Spodoptera frugiperda [2]) of 100%, a pest or weed control at 0.5 mg/plant (Plutella xylostella) of 100% and a pest or weed control at 0.5 mg/plant (Heliothis armigera) of 100%. For the same molecule, the inhibition at 20 ppm (Myzus persicae) was 90%.

In the case of `CNC(=O)c1cc(F)cc(C)c1NC(=O)c1cc(Cn2nnc(C(F)(F)F)n2)nn1-c1ncccc1Cl` [(I-1-61)], the pest or weed control at 0.5 mg/plant (Spodoptera frugiperda [2]) is reported as 100%, the pest or weed control at 0.5 mg/plant (Plutella xylostella) is reported as 100% and the pest or weed control at 0.5 mg/plant (Heliothis armigera) is reported as 100%.

Molecule `CNC(=O)c1cc(C#N)cc(C)c1NC(=O)c1cc(Cn2nnc(C(F)(F)F)n2)nn1-c1ncccc1Br` [(I-1-62)] has a pest or weed control at 0.5 mg/plant (Spodoptera frugiperda [2]) of 98%, a pest or weed control at 0.5 mg/plant (Plutella xylostella) of 100% and a pest or weed control at 0.5 mg/plant (Heliothis armigera) of 95%. It also gave an inhibition at 20 ppm (Myzus persicae) of 80% and an inhibition at 20 ppm (Diabrotica balteata) of 100%.

Molecule `Cc1cc(C#N)cc(C(=O)NC(C)(C)C)c1NC(=O)c1cc(Cn2nnc(C(F)(F)F)n2)nn1-c1ncccc1Cl` [(I-1-63)] has a pest or weed control at 0.5 mg/plant (Spodoptera frugiperda [2]) of 100%, a pest or weed control at 0.5 mg/plant (Plutella xylostella) of 100% and a pest or weed control at 0.5 mg/plant (Heliothis armigera) of 100%.

In the case of `CNC(=O)c1cc(Br)cc(C)c1NC(=O)c1cc(Cn2nnc(C(F)(F)F)n2)nn1-c1ncccc1Cl` [(I-1-64)], the pest or weed control at 0.5 mg/plant (Spodoptera frugiperda [2]) is reported as 100%, the pest or weed control at 0.5 mg/plant (Plutella xylostella) is reported as 100% and the pest or weed control at 0.5 mg/plant (Heliothis armigera) is reported as 100%.

`Cc1cc(C#N)cc(C(=O)NC(C)(C)C)c1NC(=O)c1cc(Cn2nnc(C(F)(F)F)n2)nn1-c1ncccc1Br` [(I-1-65)] was tested, and the pest or weed control at 1 mg/plant (Spodoptera frugiperda [2]) was 95%, the pest or weed control at 1 mg/plant (Plutella xylostella) was 100% and the pest or weed control at 1 mg/plant (Heliothis armigera) was 100%.

`CNC(=O)c1cc(C#N)cc(C)c1NC(=O)c1cc(Cn2nnc(C(F)(F)F)n2)nn1-c1c(F)cccc1Cl` [(I-1-66)] was tested, and the pest or weed control at 1 mg/plant (Spodoptera frugiperda [2]) was 95%, the pest or weed control at 1 mg/plant (Plutella xylostella) was 90% and the pest or weed control at 1 mg/plant (Heliothis armigera) was 100%. The inhibition at 20 ppm (Myzus persicae) was 90% and the inhibition at 20 ppm (Diabrotica balteata) was 90%.

`Cc1cc(C#N)cc(C(=O)NC(C)C)c1NC(=O)c1cc(Cn2nnc(C(F)(F)F)n2)nn1-c1ncccc1Br` [(I-1-67)] was tested, and the pest or weed control at 1 mg/plant (Spodoptera frugiperda [2]) was 90%, the pest or weed control at 1 mg/plant (Plutella xylostella) was 100% and the pest or weed control at 1 mg/plant (Heliothis armigera) was 100%.

With `Cc1cc(Br)cc(C(=O)NCC#N)c1NC(=O)c1cc(Cn2nnc(C(F)(F)F)n2)nn1-c1ncccc1Cl` [(I-1-68)] the pest or weed control at 0.5 mg/plant (Spodoptera frugiperda [2]) was 100%, the pest or weed control at 0.5 mg/plant (Plutella xylostella) was 100% and the pest or weed control at 0.5 mg/plant (Heliothis armigera) was 100%. It also gave an inhibition at 20 ppm (Diabrotica balteata) of 100%.

For `CNC(=O)c1cc(I)cc(C)c1NC(=O)c1cc(Cn2nnc(C(F)(F)F)n2)nn1-c1ncccc1Cl` [(I-1-69)], the pest or weed control at 0.5 mg/plant (Spodoptera frugiperda [2]) was 85%, the pest or weed control at 0.5 mg/plant (Plutella xylostella) was 100% and the pest or weed control at 0.5 mg/plant (Heliothis armigera) was 100%. For the same molecule, the inhibition at 20 ppm (Diabrotica balteata) was 100%.

For `Cc1cc(C#N)cc(C(=O)NC(C)(C)C)c1NC(=O)c1cc(Cn2nnc(C(F)(F)F)n2)nn1-c1ncccc1F` [(I-1-70)], the pest or weed control at 1 mg/plant (Spodoptera frugiperda [2]) was 90%, the pest or weed control at 1 mg/plant (Plutella xylostella) was 100% and the pest or weed control at 1 mg/plant (Heliothis armigera) was 95%.

`Cc1cc(C#N)cc(C(=O)NC(C)(C)C)c1NC(=O)c1cc(Cn2nnc(C3CC3)n2)nn1-c1ncccc1Cl` [(I-1-71)] gave a pest or weed control at 0.5 mg/plant (Spodoptera frugiperda [2]) of 85% and a pest or weed control at 0.5 mg/plant (Plutella xylostella) of 90%.
